Source: patent US20090176742A1, “METHODS RELATING TO THE TREATMENT OF FIBROTIC DISORDERS” (UNIVERSITY OF WASHINGTON, priority 2005, published 2009)

Experiments:
collagen1A2 = test: RT-PCR for collagen1A2 in bleomycin treated mice; assay type: in vivo; details: ICG-001 5 mgs/Kg/day s.c.
From the text: (§1) FIGS. 16 and 17 show RT-PCR data for S100A4 (FIG. 16) and collagen1A2 (FIG. 17), which are increased in the bleomycin treated mice (treated with saline control).

[1] = test system: TCF/β-catenin transcription; test: Bat-Gal transgenic mice given intratracheal bleomycin; lung sections stained with X-Gal (reporter for TCF/β-catenin transcription); assay type: in vivo; details: ICG-001 5 mg/Kg/day via minipump (subcutaneously)
Protocol: FIG. 14. FIG. 14A-C depicts lung sections taken from Bat-Gal transgenic mice given intratracheal saline or bleomycin and either treated with ICG-001 (5 mgs/Kg/day subcutaneously) or saline as vehicle control. The lungs were sectioned and stained with X-Gal (blue color.) FIG. 14A, intratracheal bleo+saline; FIG. 14B, intracheal bleo+ICG-001; FIG. 14C, saline+saline.
Using this murine model of pulmonary fibrosis in transgenic Bat-Gal mice, ICG-001 5 mg/Kg/day, administered via minipump) blocked >95% of bleomycin-induced TCF/β-catenin transcription.
These mice have a Beta-Galactosidase transgene driven by a TCF/Catenin driven promoter (i.e. a read out for activated Wnt/catenin signaling). The mice were given intratracheal saline or bleomycin and either treated with ICG-001 (5 mgs/Kg/day subcutaneously) or saline as vehicle control. The mice were sacrificed and the lungs sectioned and stained with X-Gal (blue color) A) intratracheal bleo+saline. B) intracheal bleo+ICG-001 C) saline+saline.
The dose was selected because ICG-001 reduces TCF/β-Catenin driven β-Galactosidase expression >95% at 5 mgs/Kg/day.

Aquaporin 5 = Aquaporin 5 immunostaining of lung tissue in the bleomycin mouse model; assay type: in vivo, mice; details: bleomycin and ICG-001 versus bleomycin alone
From the text: FIG. 22. […] Bleomycin alone, FIG. 22A; bleomycin and ICG-001, FIG. 22B; saline FIG. 22C.
The aquaporins are water channels expressed in a variety of cell types. Aquaporin 5 is involved in the transportation of water across the apical surface of the alveolar epithelium and the epithelia of the submucosal glands in the upper airway and nasopharynx. (Krane, C. M., P.N.A.S. 98:14192-4, 2001; Yang, F. J. Biol. Chem. 278:32173-80, 2003). Because aquaporin 5 is a marker of Type 1 (differentiated) lung epithelium, its expression was assayed in lung tissue created with bleomycin (FIG. 22A), bleomycin and ICG-001 (FIG. 22B), and saline (FIG. 22C), using the animal model as described in Example 2 (FIG. 15), and immunostaining with an antibody specific for Aquaporin 5.

[2] = test system: S100A4 (FSP-1, fibroblast specific protein-1); test: Western blot for S100A4 on whole cell lysates of cultured IPF fibroblasts; assay type: cell-based, human
Protocol: (§2) FIG. 20. FIG. 20 depicts a Western blots for S100A4 (also know as FSP-1 or fibroblast specific protein-1) and E-Cadherin performed on whole cell lysates of IPF patient fibroblasts cultured in RPMI1640+10% FBS for 2 days and treated with ICG-001.
(§3) Western blots for S100A4 (also know as FSP-1 or fibroblast specific protein-1) and E-Cadherin were performed on whole cell lysates (FIG. 20).

E-Cadherin = test: Western blot for E-Cadherin on whole cell lysates of cultured IPF patient fibroblasts; assay type: cell-based, human
Protocol: as §2, §3

[3] = test system: C57/B16 mice treated with intratracheal bleomycin; test: Murine model of bleomycin induced pulmonary fibrosis; lung sections stained with trichrome for collagen, plus body weight and survival; assay type: in vivo
From the text: FIG. 15. FIG. 15 depicts lung sections taken from C57/B16 mice treated with intratracheal bleomycin (lower left) or saline (upper left) for 5 days and stained with trichrome ([…]) to stain collagen.
Murine models of bleomycin induced fibrosis have been developed in order to study […] disease progression.
There is an absence of airway epithelium in lower left compared to upper left (see arrow heads) and extensive collagen deposition (lower left). […] Of interest is the upper right (saline treatment) showing lack of normal airway epithelialization, extensive collagen deposition and intra-airway hypercellularity (fibroblasts and inflammatory influx).
The procedures were performed using the animal model as described in Example 2 (FIG. 15), and the sectioned lungs were stained for collagen.

S100A4 = test: RT-PCR for S100A4 in bleomycin treated mice; assay type: in vivo; details: ICG-001 5 mgs/Kg/day s.c.
From the text: as §1

[4] = IPF patient fibroblasts cultured for 2 days
[5] = bleomycin and ICG-001 versus bleomycin
[6] = bleomycin for 5 days, then ICG-001 5 mgs/Kg/day for 10 days from the sixth day

Structure (SMILES): O=C1[C@H](Cc2ccc(O)cc2)N2C(=O)CCN(C(=O)NCc3ccccc3)[C@H]2CN1Cc1cccc2ccccc12 [ICG-001]
- collagen1A2 message (RT-PCR) (collagen1A2): reduced essentially to negative control
- bleomycin-induced TCF/β-catenin transcription (TCF/β-Catenin driven β-Galactosidase expression) blocked/reduced [1]: > 95%
- aquaporin 5 expression (immunostaining, marker of Type 1 lung epithelium) (Aquaporin 5): greatly increased
- S100A4 expression (whole cell lysates) ([2]; ATCC IPF cells cultured in RPMI1640+10% FBS for 2 days): decreased
- S100A4 expression at the mRNA level ([2]; IPF patient fibroblasts): also true at the mRNA level
- S100A4 expression (Western blot, whole cell lysates) [2, 4]: decreased
- E-cadherin expression at the mRNA level (E-Cadherin; IPF patient fibroblasts): also true at the mRNA level
- E-cadherin expression (Western blot, whole cell lysates) (E-Cadherin; [4]): increased
- alveolar fibrosis (lung sections stained for collagen) [3, 5]: prevented
- interstitial fibrosis (lung sections stained for collagen) [3, 5]: prevented
- body weight ([3]; bleomycin for 5 days, then ICG-001 5 mgs/Kg/day for 10 days): regained normal body weight
- airway appearance in trichrome-stained lung sections [3, 6]: the airway looks essentially normal
- collagen levels (trichrome stain) [3, 6]: normal collagen levels
- survival ([3]; bleomycin for 5 days, then ICG-001 5 mgs/Kg/day for 10 days, untreated controls did not survive): survived
- fibrosis over the 25 days of treatment ([3]; bleomycin mouse model, 25 days of treatment): reversed fibrosis
- disease progression, as judged by reduced mortality, histopathology and endogenous gene expression ([3]; bleomycin murine model, 5 mg/Kg/day): not only halted but reversed disease progression
- S100A4 message (RT-PCR) (S100A4): reduced essentially to negative control
